Experimental data: patent US11524956B2, “Alkyne substituted quinazoline compound and methods of use” (Newgen Therapeutics, Inc., priority 2011, dated 2022)
Where two headings read alike, the source gives them in different places.

Legend:
ErbB2 kinase protein = ErbB2 kinase protein (Homo sapiens (Human), UniProt P04626); test: Kinase assay for ErbB2; assay type: biochemical; conditions: read-out: Kinase inhibition IC50 (nM) ErbB2
Procedure: The assay is performed similarly to the kinase assay for […] as described above, except ErbB2 kinase protein is used instead of EGFR kinase protein.

NCI-N87 cells = test: Anti-proliferation assay of NCI-N87 cells (CCK-8); assay type: cell-based; conditions: Homo sapiens, 72h
Procedure: The anti-proliferative assays were performed in triplicates. 3000 cell/well of N87 cells were seeded in 96-well plate, and the cells were incubated for 24h at 37° C. to allow adherence. For the cell proliferation assay, N87 cells were cultured in full cell culture medium containing 0.3% v/v DMSO. A serials concentration of the tested compound (concentration range: 30 uM to 0.16 nM, 5-fold dilution) were added to the 96-welt plate. The incubation was continued for 72h. The culture medium was then removed, and the cell viability was measured by using CCK-8 cell proliferation kit as described in manual provided by the manufacturer. The log of the fractional growth inhibition was plotted against the log of the drug concentration, and the IC50 values were interpolated from the resulting linear regression curve fit. The IC50 value measured for Compound NT113 is <100 nM.

[1] = Rat pharmacokinetics studies (plasma); assay type: in vivo, Sprague Dawley rats
Procedure: Sample preparation: The test article each was dissolved in 10% DMSO and 90% of (40% HP-β-CD in deionized water) to yield concentration at 2 mg/mL for intravenous and oral administration.
Method development and plasma samples analysis were performed by Analytical Sciences Division of the Testing Facility by means of LC-MS/MS. The analytical results were confirmed using quality control samples for intra-assay variation (within day variation). The accuracy of >66% of the quality control samples was between 80-120% of the known value(s).
Each group consisted of 3 male Sprague Dawley rats (7-8 week old, 200-300 g body weight). The test articles were administered by a single bolus intravenous injection via the lateral tail vein or via oral gavage.
Blood samples (approximately 300 μl) were collected via retro-orbital puncture after anaesthesia using mixed gas (CO2:O2=7:3) into tubes containing EDTA-K3 anticoagulant at appropriate time points. 10 time points (Groups 1-2): Pre-dose and post-dose at 5 min, 15 min, 30 min, 1 h, 2 h, 4 h, 6 h, 8 h and 24 h.
Analysis: The PK blood samples were centrifuged at approximately 8000 rpm for (3 minutes at 2-8° C. and the resulting plasma were separated and stored frozen at approximately −80° C. (following separation, the plasma may be initially placed on ice prior to being stored in the −80° C. freezer). All the plasma samples were labeled with detailed information such as study number, animal number, matrix, time points of collection and date of collection.
Standard set of parameters including Area Under the Curve (AUC(0-t) and AUC(0-∞)), elimination half-live (T1/2), maximum plasma concentration (Cmax), time to reach maximum plasma concentration (Tmax), clearance (CL), and volume of distribution (Vz) will be calculated using noncompartmental analysis modules in FDA certified pharmacokinetic program WinNonlin Professional v5.2 (Pharsight, USA) by the Study Director. Furthermore, the Bioavailability will be estimated using the following formula:
• AUC(0-t) Area under the curve from the time of dosing to the last measurable concentration • AUC(0-∞) Area under the curve from the time of dosing extrapolated to infinity, based on the last observed concentration • CL Total body clearance, CL=Dose/AUC • Cmax Maximum observed concentration, occurring at Tmax • F Bioavailability • MRT(0-∞) Mean residence time from the time of dosing to infinity • Tmax Time of maximum observed concentration • T1/2 Terminal half-life=In(2)/λz • Vz Volume of distribution based on the terminal phase

Rat brain concentration = assay type: in vivo, Sprague Dawley rats; conditions: Sprague Dawley, po, P.O. 5 mg/Kg; for concentration at 2 h / concentration at 4 h / concentration at 24 h: brain, 5 mg/kg
Procedure: Brain concentration: Three rats are for brain collection (2h) only. Three rats are for brain collection (4 h) only. The rest 3 rats are for plasma (9 time points) and brain collection (24h).
Brain Collection and Tissue Processing: Post blood collection, the brain was first perfused intracardially with ˜150 mL of ice-cold, 0.1 M Phosphate Buffered Saline (PBS) at pH7.4. Then, the dura was removed before weighing the brain. The brain was then dissected into smaller pieces, rinsed twice with ˜10 mL PBS, and then flash frozen on dry ice, and stored at −80° C. before analysis.
Before tissue processing, rat brains were thawed. For the preparation of analytical standards, purchased frozen rat brains (from Pelfreez) were similarly thawed, dissected, rinsed with PBS, and 100 μL of Compound A stock solution (at 500 ng/mL and 1, 2 5, 10, and 50 μg/mL in acetonitrile) was spiked directly into the tissue. Both Compound A dosed and spiked brains then underwent the same processing procedures described below.
Briefly, 2 mL of water was added to each brain before homogenization. Homogenize the brain in 2 to 3 sessions, each approximately 15 sec. The mechanical probe of the homogenizer was cleansed in water, 70% ethanol, and ethyl acetate after each sample. The resulting brain homogenates were then extracted with ethyl acetate three times (14 mL total), and centrifuged to separate the aqueous and organic phases after each extraction. Per brain, pooled organic phase were evaporated under a stream of nitrogen at 40° C. and the residues were reconstituted with 4 mL of mobile phase B. Compound A spiked brain samples in the 4 mL solutions had final concentrations of 12.5, 25, 50, 125, 250, 1250 ng/mL. The reconstituted samples were incubated for ˜15 minutes at 60° C. and, vortexed for 10 minutes to fully dissolve the analytes. The samples were centrifuged, and then further diluted with Mobile phase B (shown below) before LC/MS/MS analysis. Dilute 20 μL of reconstituted samples with 1.5 mL mobile phase B. Transfer and inject supernatant to […] system for analysis.

[2] = male, Sprague Dawley, rat plasma, IV 1 mg/Kg
[3] = male, Sprague Dawley, rat plasma, PO 5 mg/Kg

ErbB2 kinase protein, sequence (P04626 23-1255): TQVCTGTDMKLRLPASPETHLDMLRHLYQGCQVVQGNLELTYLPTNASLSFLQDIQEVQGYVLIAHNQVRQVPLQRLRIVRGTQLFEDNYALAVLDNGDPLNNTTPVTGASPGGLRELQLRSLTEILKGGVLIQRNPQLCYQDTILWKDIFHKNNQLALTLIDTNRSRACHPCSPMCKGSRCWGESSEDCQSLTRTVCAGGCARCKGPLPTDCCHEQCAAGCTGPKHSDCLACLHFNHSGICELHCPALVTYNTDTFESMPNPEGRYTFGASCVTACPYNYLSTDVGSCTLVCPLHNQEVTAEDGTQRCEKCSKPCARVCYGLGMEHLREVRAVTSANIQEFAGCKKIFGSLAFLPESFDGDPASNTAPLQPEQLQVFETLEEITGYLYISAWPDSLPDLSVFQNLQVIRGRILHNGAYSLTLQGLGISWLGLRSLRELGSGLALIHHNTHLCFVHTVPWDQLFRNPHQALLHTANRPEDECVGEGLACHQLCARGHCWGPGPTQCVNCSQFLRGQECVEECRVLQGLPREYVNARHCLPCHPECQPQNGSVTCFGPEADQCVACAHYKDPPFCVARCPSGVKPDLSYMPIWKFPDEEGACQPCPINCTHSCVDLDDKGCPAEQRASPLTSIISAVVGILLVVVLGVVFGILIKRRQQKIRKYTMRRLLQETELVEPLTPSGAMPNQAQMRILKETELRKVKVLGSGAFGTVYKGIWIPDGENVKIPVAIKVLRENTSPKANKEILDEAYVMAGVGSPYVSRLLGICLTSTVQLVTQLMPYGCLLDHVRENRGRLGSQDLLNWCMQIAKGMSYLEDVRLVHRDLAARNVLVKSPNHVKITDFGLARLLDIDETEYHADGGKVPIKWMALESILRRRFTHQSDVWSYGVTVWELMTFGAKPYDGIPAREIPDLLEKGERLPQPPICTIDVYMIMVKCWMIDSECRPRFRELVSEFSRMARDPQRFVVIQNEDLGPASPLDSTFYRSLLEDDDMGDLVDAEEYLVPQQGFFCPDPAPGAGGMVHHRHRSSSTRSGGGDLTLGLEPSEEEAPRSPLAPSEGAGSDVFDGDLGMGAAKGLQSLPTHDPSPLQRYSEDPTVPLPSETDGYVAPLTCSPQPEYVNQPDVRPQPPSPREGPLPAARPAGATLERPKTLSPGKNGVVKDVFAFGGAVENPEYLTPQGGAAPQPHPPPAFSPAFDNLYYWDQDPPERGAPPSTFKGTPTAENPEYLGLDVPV

For `CN(C)C/C=C/C(=O)Nc1cc2c(Nc3ccc(F)c(Cl)c3)ncnc2cc1C#C[C@@H]1[C@H]2COC[C@@H]12` [Example 4, (E)-N-(4-(3-chloro-4-fluorophenylamino)-7-(2-((1R,5S,6s)-3-oxa-bicyclo[3.1.0]hexan-6-yl)ethynyl)quinazolin-6-yl)-4-(dimethylamino)but-2-enamide], the IC50 (ErbB2 kinase protein) was < 100 nM, the IC50 (NCI-N87 cells; read-out: Cell Proliferation Inhibition IC50 (nM) NCI-N87) was < 100 nM and the IC50 (NCI-N87 cells; read-out: IC50 NCI-N87 anti-proliferation) was < 100 nM. It also gave a bioavailability ([1]; male, Sprague Dawley, plasma, rat, PO 5 mg/Kg, using AUC(0-t) instead of AUC(0-∞), read-out: calculated oral bioavailability) of 80.5%, an AUC(0-inf) [1, 2] of 158 ng·h/mL and an AUC(0-t) [1, 2] of 135 ng·h/mL. It also gave a Cmax [1, 2] of 44.4 ng/mL, a clearance [1, 2] of 105 mL/min/kg and a half-life [1, 2] of 7.48 h. It also gave a Vd ([1]; male, Sprague Dawley, rat plasma, IV 1 mg/Kg, read-out: Vz) of 20.5 L/kg, an AUC(0-inf) [1, 3] of 555 ng·h/mL and an AUC(0-t) [1, 3] of 542 ng·h/mL. It also gave a Cmax [1, 3] of 39.3 ng/mL, a half-life [1, 3] of 14.9 h and a CL ([1]; rat plasma, PO 5 mg/Kg) of 150 mL/min/kg. The Vz ([1]; rat plasma, PO 5 mg/Kg) was 58.1 L/kg, the F ([1]; rat, IV 1 mg/Kg) was 100% and the F ([1]; rat, PO 5 mg/Kg, from AUC(0-∞)) was 70.1%. The “oral bioavailability and brain penetration (qualitative)” value ([1]; rat, oral administration) was “good oral bioavailability and brain penetration”, the concentration at 2 h (Rat brain concentration; 2 hr, read-out: Brain Conc. (ng/g) Mean) was 156 ng/g and the concentration at 2 h (Rat brain concentration; 2 hr, read-out: Brain Conc. (ng/g) No. 1) was 118 ng/g. It also gave a concentration at 2 h (Rat brain concentration; 2 hr, read-out: Brain Conc. (ng/g) No. 2) of 156 ng/g, a concentration at 2 h (Rat brain concentration; 2 hr, read-out: Brain Conc. (ng/g) No. 3) of 194 ng/g and a concentration at 4 h (Rat brain concentration; 4 hr, read-out: Brain Conc. (ng/g) Mean) of 173 ng/g. For the same molecule, the concentration at 4 h (Rat brain concentration; 4 hr, read-out: Brain Conc. (ng/g) No. 1) was 127 ng/g, the concentration at 4 h (Rat brain concentration; 4 hr, read-out: Brain Conc. (ng/g) No. 2) was 209 ng/g and the concentration at 4 h (Rat brain concentration; 4 hr, read-out: Brain Conc. (ng/g) No. 3) was 185 ng/g. The concentration at 24 h (Rat brain concentration; 24 hr, read-out: Brain Conc. (ng/g) Mean) was 17.6 ng/g, the concentration at 24 h (Rat brain concentration; 24 hr, read-out: Brain Conc. (ng/g) No. 1) was 26 ng/g and the concentration at 24 h (Rat brain concentration; 24 hr, read-out: Brain Conc. (ng/g) No. 2) was 11 ng/g. For the same molecule, the concentration at 24 h (Rat brain concentration; 24 hr, read-out: Brain Conc. (ng/g) No. 3) was 15.8 ng/g, the Kp at 2 h (Rat brain concentration; brain/plasma, 2 hr, read-out: B/P ratio) was 4 and the Kp at 4 h (Rat brain concentration; brain/plasma, 4 hr, read-out: B/P ratio) was 4.4. The Kp at 24 h (Rat brain concentration; brain/plasma, 24 hr, read-out: B/P ratio) was 8.7.
